Test results published in US4532255A, “Amidine compounds and anticomplement agent comprising same” (Torii & Co., Ltd., priority 1980, dated 1985).
Several values for one entry are separate records, joined by “and”; a condition that tells them apart may be missing. Equal entries are not always repeated.

Columns and labels:
C1s [1] = biological target: T1, C1s (Homo sapiens, UniProt P09871); test: biochemical; conditions: ATEE hydrolysis; read-out: Anti-C1 activity, C1s ID50
T1 sequence (P09871 438-688 limits assumed): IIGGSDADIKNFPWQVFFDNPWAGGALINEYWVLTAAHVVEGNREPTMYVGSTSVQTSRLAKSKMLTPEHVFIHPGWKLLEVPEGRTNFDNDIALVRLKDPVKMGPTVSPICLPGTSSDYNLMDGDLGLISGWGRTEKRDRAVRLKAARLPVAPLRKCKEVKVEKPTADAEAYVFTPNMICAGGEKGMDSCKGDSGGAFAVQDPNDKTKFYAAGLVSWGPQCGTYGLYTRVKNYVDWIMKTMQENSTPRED
T1 sequence (P09871 16-437 partner limits assumed): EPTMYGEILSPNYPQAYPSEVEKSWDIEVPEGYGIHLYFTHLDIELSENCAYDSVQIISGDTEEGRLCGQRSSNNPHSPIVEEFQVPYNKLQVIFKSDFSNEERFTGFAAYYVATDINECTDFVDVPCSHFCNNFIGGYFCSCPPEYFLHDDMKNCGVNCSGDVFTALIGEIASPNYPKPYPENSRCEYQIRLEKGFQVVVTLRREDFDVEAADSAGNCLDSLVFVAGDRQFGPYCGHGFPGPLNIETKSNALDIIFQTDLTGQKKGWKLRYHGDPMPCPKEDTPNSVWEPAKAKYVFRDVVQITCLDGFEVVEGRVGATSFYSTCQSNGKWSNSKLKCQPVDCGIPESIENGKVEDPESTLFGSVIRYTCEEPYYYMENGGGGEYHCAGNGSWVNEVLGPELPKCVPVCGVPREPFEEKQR
Experimental: The anti-Cl esterase (Clr, Cls) activity was determined according to the method of Okamura et al. [K. Okamura, M. Muramatsu and S. Fujii, Biochem. Biophys. […] The figures in Table 2 have the following meanings:
Cls: Molar concentration of the test compound which inhibits 50% of the ability of Cls to hydrolyse ATEE (acetyltyrosin ethyl ester).

[2] = system: complement mediated hemolysis; test: Inhibition of complement mediated hemolysis; assay type: cell-based
Experimental: The principle of this method is based on the fact that hemolysis is caused by the activation of complement, when the latter is added to a complex (immune complex) of erythrocytes and the antibody thereof. The degree of hemolysis varies in proportion to the amount of complement added. Therefore, when a known amount of complement admixed with a C1 esterase inhibitor is used, the hemolysis must be suppressed in proportion to the inhibitory activity.

[3] = Toxicity, median lethal dose (LD50); conditions: in vivo
Thrombin [4] = biological target: T2, Thrombin (Homo sapiens, UniProt P00734); test: biochemical; conditions: for IC50: molar concentration inhibiting 50% of TAME hydrolysis, read-out: Thrombin ID50; for inhibition at 10 µM: at 1×10^-5 M, read-out: Thrombin percentage inhibition
Kallikrein [5] = test: Anti-kallikrein activity (hydrolysis of TAME); assay type: biochemical; conditions: molar concentration inhibiting 50% of TAME hydrolysis; read-out: Kallikrein ID50
Experimental: The anti-trypsin, anti-plasmin, anti-kallikrein and anti-thrombin activities were determined according to the method of Muramatsu et al. [M. Muramatsu, T. Onishi, S. Makino, Y. Hayashi and S. Fujii, J. of Biochem., 58, 214 (1965)]. The data summarized in Table 1 are expressed in terms of molar concentration (ID50) of the test compound which inhibits 50% of the activity of each enzyme to hydrolyze TAME (tosylalginine methyl ester). The compound No. corresponds to the compound number shown in Examples.

C1r = biological target: T3, C1r (Homo sapiens, UniProt P00736); test: Anti-C1 esterase (C1r) activity (hydrolysis of AAME); assay type: biochemical; conditions: for IC50: AAME hydrolysis, read-out: Anti-C1 activity, C1r ID50
T3 sequence (P00736 464-705 limits assumed): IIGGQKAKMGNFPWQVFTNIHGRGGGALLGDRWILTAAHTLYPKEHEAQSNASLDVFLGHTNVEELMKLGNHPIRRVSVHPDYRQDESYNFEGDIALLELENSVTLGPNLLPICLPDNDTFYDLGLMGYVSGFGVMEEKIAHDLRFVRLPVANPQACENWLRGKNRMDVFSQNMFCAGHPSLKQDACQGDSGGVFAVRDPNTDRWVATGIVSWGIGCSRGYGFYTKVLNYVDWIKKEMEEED
T3 sequence (P00736 18-463 partner limits assumed): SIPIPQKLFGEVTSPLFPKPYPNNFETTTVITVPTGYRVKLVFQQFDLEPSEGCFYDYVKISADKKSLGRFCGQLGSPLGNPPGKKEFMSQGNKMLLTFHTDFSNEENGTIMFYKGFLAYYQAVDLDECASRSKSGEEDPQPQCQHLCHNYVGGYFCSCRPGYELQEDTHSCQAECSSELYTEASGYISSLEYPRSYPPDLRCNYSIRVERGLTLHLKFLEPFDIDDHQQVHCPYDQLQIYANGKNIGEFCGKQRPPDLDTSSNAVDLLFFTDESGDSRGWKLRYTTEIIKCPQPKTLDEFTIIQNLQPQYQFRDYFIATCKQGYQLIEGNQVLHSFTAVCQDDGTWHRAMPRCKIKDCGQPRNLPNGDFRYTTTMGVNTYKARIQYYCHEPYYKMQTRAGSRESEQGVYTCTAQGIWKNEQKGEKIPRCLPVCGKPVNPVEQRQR
Experimental: The anti-Cl esterase ([…]) activity was determined according to the method of Okamura et al. [K. Okamura, M. Muramatsu and S. Fujii, Biochem. Biophys.

Forssman shock = Forssman shock (survival time after hemolysin); assay type: in vivo, Male Hartlay guinea pig; conditions: 5 minutes before hemolysin
Source text: Quite different from other animals, guinea pig has on the surface of its organs a specific antigen called Forssman antigen which specifically reacts with the antibody of sheep erythrocyte. Forssman shock is based on the above principle and is a shock caused by the administration of antibody of sheep erythrocyte to a guinea pig. The Forssman shock was investigated in detail by many researchers and it was definitely shown that this shock is a model case where the complement plays the principal part and that the shock is associated with a classical pathway in which the complement system is activated progressively starting from C1. Since the participation of complement in autoimmune diseases has been established, the Forssman shock can be said to be a useful means for testing a drug for autoimmune diseases. A drug effective for the treatment of Forssman shock is useful as a drug of autoimmune diseases. [Anti-trypsin, anti-plasmin, anti-kallikrein and anti-thrombin activities]
The experiment was performed according to the method of I. G. Offerness et al. [Biochem. Pharmacol., 27 (14), 1873-1878 (1978)]. Male Hartlay guinea pig of about 300 g in body weight was used. Each guinea pig of the control group was administered intravenously with 0.5 ml (minimum dose to cause the shock) of hemolysin (commercial hemolysin, 5,000 U as assayed by the method of Ogata) and the time elapsed until death was observed. For the test group, each guinea pig was administered intravenously with the test compound 5 minutes before the administration of hemolysin and the time (second) elapsed until death was observed.

Trypsin [6] = biological target: T4, Trypsin (Bos taurus, UniProt P00760); test: Anti-trypsin activity (hydrolysis of TAME); assay type: biochemical; conditions: molar concentration inhibiting 50% of TAME hydrolysis; read-out: Trypsin ID50
T4 sequence (P00760 24-246): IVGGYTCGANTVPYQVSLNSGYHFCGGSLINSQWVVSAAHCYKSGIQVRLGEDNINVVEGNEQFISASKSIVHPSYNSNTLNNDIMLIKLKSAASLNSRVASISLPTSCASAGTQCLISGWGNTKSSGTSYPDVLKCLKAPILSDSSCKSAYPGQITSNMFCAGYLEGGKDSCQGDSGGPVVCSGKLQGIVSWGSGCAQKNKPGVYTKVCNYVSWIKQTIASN
Experimental: (§1) The anti-trypsin, anti-plasmin, anti-kallikrein and anti-thrombin activities were determined according to the method of Muramatsu et al. [M. Muramatsu, T. Onishi, S. Makino, Y. Hayashi and S. Fujii, J. of Biochem., 58, 214 (1965)]. […] The compound No. corresponds to the compound number shown in Examples.

Plasmin [7] = biological target: T5, Plasmin (Homo sapiens, UniProt P00747); test: Anti-plasmin activity (hydrolysis of TAME); assay type: biochemical; conditions: for IC50: molar concentration inhibiting 50% of TAME hydrolysis, read-out: Plasmin ID50
Experimental: as §1

C1s [8] = biological target: T1, C1s; test: biochemical; conditions: at 1×10^-5 M; read-out: Anti-C1 activity, C1s percent inhibition
Thrombin [9] = biological target: T2, Thrombin; conditions: G. Wagner et al., Pharmazie 1977; cited from earlier work
Trypsin [10] = biological target: T4, Trypsin; conditions: G. Wagner et al., Pharmazie 1977; cited from earlier work
Plasmin [11] = biological target: T5, Plasmin; conditions: G. Wagner et al., Pharmazie 1977; cited from earlier work
complement = conditions: Y. Takada et al., Immunology 1978; cited from earlier work
Kallikrein [12] = test: Anti-kallikrein activity (hydrolysis of TAME); assay type: biochemical; conditions: at 1×10^-5 M
[13] = 1.0 mg/kg intravenous, control average 465 (No. 27), 428 (No. 22)

T5 sequence (P00747 581-810 limits assumed, species assumed): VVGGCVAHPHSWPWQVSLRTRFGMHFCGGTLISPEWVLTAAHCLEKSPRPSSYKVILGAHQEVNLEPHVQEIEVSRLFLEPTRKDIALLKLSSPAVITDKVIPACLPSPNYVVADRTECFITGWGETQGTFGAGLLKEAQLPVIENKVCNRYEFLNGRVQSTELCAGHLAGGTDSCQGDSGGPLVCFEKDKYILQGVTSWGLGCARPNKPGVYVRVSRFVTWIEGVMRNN
T5 sequence (P00747 97-580 partner limits assumed, species assumed): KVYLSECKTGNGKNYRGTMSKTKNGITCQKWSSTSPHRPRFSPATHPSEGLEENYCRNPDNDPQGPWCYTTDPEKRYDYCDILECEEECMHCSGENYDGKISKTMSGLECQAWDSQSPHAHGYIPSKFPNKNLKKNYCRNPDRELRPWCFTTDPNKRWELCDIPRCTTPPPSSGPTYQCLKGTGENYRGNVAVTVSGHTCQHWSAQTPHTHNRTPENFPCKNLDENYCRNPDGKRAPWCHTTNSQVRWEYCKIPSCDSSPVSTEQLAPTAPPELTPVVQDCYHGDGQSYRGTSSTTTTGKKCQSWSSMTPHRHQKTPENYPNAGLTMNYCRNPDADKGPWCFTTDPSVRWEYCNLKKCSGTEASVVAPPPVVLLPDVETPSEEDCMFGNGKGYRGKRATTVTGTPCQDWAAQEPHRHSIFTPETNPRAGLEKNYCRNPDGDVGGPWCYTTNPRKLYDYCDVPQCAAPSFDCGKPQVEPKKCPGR

Compound | IC50 (C1s [1]) | Inhibition of complement mediated hemolysis (%) ([2]; 1 × 10^-4) | Inhibition of complement mediated hemolysis (%) ([2]; 1 × 10^-5) | Inhibition of complement mediated hemolysis (%) ([2]; 1 × 10^-6) | Inhibition of complement mediated hemolysis (%) ([2]; 1 × 10^-7) | IC50 (Thrombin [4]) | IC50 (Kallikrein [5]) | IC50 (C1r) | IC50 (Trypsin [6]) | inhibition at 10 µM (Thrombin [4]) | IC50 (Plasmin [7]) | also measured
N=C(N)Nc1ccc(C(=O)Oc2ccc3cc(C(=N)N)ccc3c2)cc1 [Compound 27, 6-amidino-2-naphthyl 4-guanidinobenzoate] | 0.05 µM | 100% | 100% | 97% | 44% | 3 µM | 5 µM | 0.1 µM |  |  |  | LD50 ([3]; ip): 200 mg/kg; LD50 ([3]; po): 2500 mg/kg; Time elapsed until death, individual animal (Forssman shock; 0.5 mg/kg intravenous): 732 s and 740 s and 723 s and 724 s and 590 s and 410 s; Time elapsed until death, average (Forssman shock; 0.5 mg/kg intravenous, control average 465): 653 s; Time elapsed until death, individual animal (Forssman shock; 1.0 mg/kg intravenous): 740 sec. and 820 sec. and Survival and 670 sec. and 1325 sec.; Time elapsed until death, average (Forssman shock; [13]): > 889 s
N=C(N)c1ccc2cc(OC(=O)c3ccc(CN)cc3)ccc2c1 [Compound 22, 6-amidino-2-naphthyl 4-aminomethylbenzoate] | 0.2 µM | 100% | 99% | 90% | 48% |  | 3 µM | 0.3 µM | 4 µM | 26% | 4 µM | LD50 ([3]; ip): 200 mg/kg; LD50 ([3]; po): 2500 mg/kg; Time elapsed until death, individual animal (Forssman shock; 1.0 mg/kg intravenous): 240 s and 630 s and 250 s and 570 s and 440 s and 675 s; Time elapsed until death, average (Forssman shock; [13]): 468 s; Time elapsed until death, individual animal (Forssman shock; 3.0 mg/kg intravenous): 745 s and 1410 s and 600 s and 885 s and 455 s and 435 s; Time elapsed until death, average (Forssman shock; 3.0 mg/kg intravenous, control average 428): 755 s
N=C(N)c1ccc2cc(OC(=O)CCc3ccc(N)cc3)ccc2c1 [Compound 51, 6-amidino-2-naphthyl 4-aminophenylpropionate] |  | 54% | 6% | 1% | 0% |  |  |  | 10 µM | 35% | 6 µM | inhibition at 10 µM (C1s [8]): 21%; inhibition at 10 µM (C1r; at 1×10^-5 M, read-out: Anti-C1 activity, C1r percent inhibition): 18%
N=C(N)c1ccc2cc(O)ccc2c1 [6-amidino-2-naphthol, reference compound] |  |  |  |  |  | > 1000 µM | > 1000 µM |  | > 1000 µM |  | 440 µM | Thrombin inhibition in words (Thrombin [9]): inhibits trypsin, plasmin and thrombin; Trypsin inhibition in words (Trypsin [10]): inhibits trypsin, plasmin and thrombin; Plasmin inhibition in words (Plasmin [11]): inhibits trypsin, plasmin and thrombin
CC(=O)N[C@@H](CC(C)C)C(=O)N[C@@H](CC(C)C)C(=O)N[C@H](C=O)CCCNC(=N)N [Leupeptin, reference compound] |  | 97% | 52% | 0% | 0% |  |  |  |  |  |  | Anti-complement activity in words (complement): having an anti-complement activity
N=C(N)c1ccc2cc(OC(=O)c3ccc(N)cc3)ccc2c1 [Compound 20, 6-amidino-2-naphthyl 4-aminobenzoate] | 0.2 µM | 95% | 46% | 5% | 0% | > 10 µM |  | 0.2 µM | 0.06 µM |  |  | inhibition at 10 µM (Plasmin [7]; at 1×10^-5 M, read-out: Plasmin percentage inhibition): 27%; Kallikrein percentage inhibition (Kallikrein [12]): 31%
CC(=O)Oc1ccc(C(=O)Oc2ccc3cc(C(=N)N)ccc3c2)cc1 [Compound 13] | 0.3 µM | 94% | 42% | 5% | 4% |  |  | 0.3 µM | 0.4 µM | 39% | 2 µM | Kallikrein percentage inhibition (Kallikrein [12]): 24%
